{
  "source": "patent US11536729B2",
  "about": "“Method of identifying novel protein aggregation inhibitors based on chemical kinetics” (Cambridge Enterprise Limited, priority 2016, dated 2022)",
  "system": "C. elegans GMC101 (Aβ-worm)",
  "assay": "NIAD-4 staining of amyloid aggregates in living C. elegans",
  "assay_type": "in vivo, Caenorhabditis elegans",
  "method": "Live transgenic animals were incubated with NIAD-4 over a range of concentrations and times, and it was empirically determined that incubation of living animals with 1 μM NIAD-4 (0.1% DMSO in M9 buffer) for four hours at room temperature gave robust and reproducible staining. After staining, animals were Let recover on NGM plates for about 24 hrs to allow destaining via normal metabolism. Stained animals were mounted on 2% agarose pads containing 40 mM NaN3 as anaesthetic on glass microscope slides for imaging. Images were captured with a Zeiss Axio Observer.D1 fluorescence microscope (Carl Zeiss Microscopy GmbH, Jena, Germany) with a 20× objective and a 49004 ET-CY3/TRITC filter (Chroma Technology Corp, Bellows Falls, Vt., USA). Fluorescence intensity was calculated using ImageJ software (National Institutes of Health, Bethesda, Md., USA), and then normalized as the corrected total cell fluorescence (CTCF). Only the head region was considered, due to the high background signal in the guts. All experiments were carried out in triplicate and the data from one representative experiment are shown. Statistical significance was determined using t tests.",
  "data": [
    {"smiles": "C=C(c1ccc(C(=O)O)cc1)c1cc2c(cc1C)C(C)(C)CCC2(C)C", "note": "[bexarotene]", "values": [
      {"measurement": "time for which formation of Aβ42 fibrils was suppressed", "setting": "10 μM", "result": "9 days of adulthood"},
      {"measurement": "level of aggregates (NIAD-4 fluorescence)", "setting": "Aβ-worm model in the presence of bexarotene", "result": "essentially no aggregates being detected"}
    ]}
  ]
}
